“And” between values parts separate entries of the source, which are not always exact repeats. Equal values may be shown once.
Conditions: in H2O; cited from earlier work
For `C=CCCl` [Allyl chloride], the “SOLUBIL. IN H2O” value is listed as 3600 PPM. In the case of `CCC(C)c1ccccc1` (stereo not shown) [sec-butylbenzene], the “SOLUBIL. IN H2O” value is given as 320 PPM. For `Clc1ccccc1Cl` [1,2-Dichlorobenzene], the “SOLUBIL. IN H2O” value is listed as 10000 PPM. For `Cc1ccccc1O` [2-Methylphenol], the “SOLUBIL. IN H2O” value is listed as 775000 PPM. In the case of `CCCCc1ccccc1` [n-Butylbenzene], the “SOLUBIL. IN H2O” value is listed as 5000 PPM. For `CCOCC` [Diethyl ether], the “SOLUBIL. IN H2O” value is given as 60400 PPM. For `CCCN(CCC)N=O` [n-Nitroso-di-n-propylamine], the “SOLUBIL. IN H2O” value is listed as 5 PPM. In the case of `Cc1cc(O)ccc1Cl` [4-Chloro-3-methyl phenol], the “SOLUBIL. IN H2O” value is listed as 1 PPM. For `Nc1ccccc1` [Aniline], the “SOLUBIL. IN H2O” value is given as 32500 PPM. In the case of `c1ccc2c(c1)oc1ccccc12` [Dibenzofuran], the “SOLUBIL. IN H2O” value is given as 1 PPM. For `Cc1ccc(O)c(C)c1` [2,4-Dimethylphenol], the “SOLUBIL. IN H2O” value is given as 5 PPM. In the case of `Clc1cccc(Cl)c1` [1,3-Dichlorobenzene], the “SOLUBIL. IN H2O” value is listed as 11000 PPM and 10000 PPM. For `Cc1ccc(C(C)C)cc1` [para-iso-Propyl toluene], the “SOLUBIL. IN H2O” value is listed as 1 PPM. In the case of `CCCc1ccccc1` [n-Propylbenzene], the “SOLUBIL. IN H2O” value is given as 60 PPM. In the case of `C=CC#N` [Acrylonitrile], the “SOLUBIL. IN H2O” value is given as 73000 PPM. In the case of `Brc1ccccc1` [Bromobenzene], the “SOLUBIL. IN H2O” value is given as 400 PPM. In the case of `Clc1cc(Cl)c(Cl)c(Cl)c1Cl` [Pentachlorobenzene], the “SOLUBIL. IN H2O” value is given as 1 PPM. In the case of `Cc1ccc(Cl)cc1` [4-Chlorotoluene], the “SOLUBIL. IN H2O” value is listed as 5 PPM. In the case of `Cc1ccccc1N` [o-Toluidine], the “SOLUBIL. IN H2O” value is listed as 17000 PPM. For `CC(C)(C)c1ccccc1` [tert-Butlybenzene], the “SOLUBIL. IN H2O” value is given as 290 PPM. For `O=NN1CCOCC1` [n-Nitrosomorpholine], the “SOLUBIL. IN H2O” value is listed as 1000000 PPM. For `BrCBr` [Dibromomethane], the “SOLUBIL. IN H2O” value is given as 11500 PPM. For `C=C(C)C(=O)OC` [Methyl methacrylate], the “SOLUBIL. IN H2O” value is given as 16000 PPM. For `c1ccc2ccccc2c1` [Naphthalene], the “SOLUBIL. IN H2O” value is given as 3400 PPM. For `Oc1ccccc1Cl` [2-Chlorophenol], the “SOLUBIL. IN H2O” value is listed as 5 PPM. For `ClCCOCCCl` [bis(2-Chloroethyl) ether], the “SOLUBIL. IN H2O” value is listed as 1 PPM. In the case of `Clc1cccc(Cl)c1Cl` [1,2,3-Trichloro benzene], the “SOLUBIL. IN H2O” value is listed as 1 PPM. For `CC(=O)c1ccccc1` [Acetophenone], the “SOLUBIL. IN H2O” value is given as 5500 PPM. For `Cc1cc(C)cc(C)c1` [1,3,5-Trimethyl benzene], the “SOLUBIL. IN H2O” value is listed as 2000 PPM. In the case of `CC(C)c1ccccc1` [iso-Propylbenzene], the “SOLUBIL. IN H2O” value is given as 5000 PPM. For `Nc1ccccc1[N+](=O)[O-]` [2-Nitroaniline], the “SOLUBIL. IN H2O” value is listed as 5 PPM. In the case of `OCc1ccccc1` [Benzyl alcohol], the “SOLUBIL. IN H2O” value is listed as 80000 PPM. For `O=NN1CCCCC1` [n-Nitroso-piperidine], the “SOLUBIL. IN H2O” value is given as 1000000 PPM. In the case of `Nc1ccc(Cl)cc1` [4-Chloroaniline], the “SOLUBIL. IN H2O” value is listed as 5 PPM.

Same assay, conditions: water; cited from earlier work
For `Cc1ccccn1` [2-Picoline], the “SOLUBIL. IN H2O” value is listed as 1000000 PPM. For `Cc1ccc(C)c(C)c1` [1,2,4-Trimethyl benzene], the “SOLUBIL. IN H2O” value is listed as 1 PPM.

Conditions: 1 gram cod liver oil, 200 ppb spike recovery only
Description: The cryotrap is placed in liquid nitrogen which is replaced as needed throughout the operation. The sample valve is placed in the load position. Samples are placed in the sample chamber and the chamber attached to the apparatus. The coolant/heat valve is adjusted so that the condenser fluid is circulating and at the desired temperature. The vacuum pump is turned on and the vacuum pump valve and sample chamber valve are opened to begin distillation/purging. After five minutes the pressure at the vacuum pump, as measured by a Pirani gauge reads about 0.1 Torr and a Pirani gauge reads less than about 250 Torr at the sample chamber. Distillation continues for another five minutes to complete distillation at which time the sample chamber pressure should be approximately 10 Torr.
Once distillation is complete, the sampling valve is adjusted to the injection position. The liquid nitrogen is removed from the cryotrap and replaced with a beaker of hot (about 90° C.) tap water. The GC/MS then begins to collect data. At this stage, the sample chamber may be removed and the apparatus prepared for another sample. If multiple samples are connected, a new sample chamber may be connected in sequence.
For `CCC(C)=O` [2-Butanone], the “Oil Recovery (200 ppb spike only)” value was 128 ± 21.5%.
